Results reported in patent publication US7217559B2, “Gene encoding cyclododecanone monooxygenase” (National Research Council of Canada, priority 2002, dated 2007).

B1: CDMO: cyclododecanone monooxygenase of Pseudomonas putida HI-70, encoded by cdnB, amino acid sequence SEQ ID NO:8 (protein)
chain: MSQLIQEPAEAGVTSQKVSFDHVALREKYRQERDKRLRQDGQEQYLEVAVTCDEYLKDPYADPIVRDPVVRETDVFIIGGGFGGLLAAVRLQQAGVSDYVMVERAGDYGGTWYWNRYPGAQCDIESYVYMPLLEEMGYIPTEKYAFGTEILEYSRSIGRKFGLYERTYFQTEVKDLSWDDEAARWRITTDRGDKFSARFVCMSTGPLQRPKLPGIPGITSFKGHSFHTSRWDYSYTGGDQTGNLEGLKDKRVAIIGTGATSIQAVPHLAAYAQELYVIQRTPISVGFRGNKPTDPEWAKSLQPGWQQARMDNFNAITHGMPVDVDLVQDSWTKIFGEIGVFLGSDGSRAQMVDFQLMEQIRARVDQEVKDPATAESLKPYYNIMCKRPGFHDSYLPSFNKPNVTLVDTQGAGVERITEKGLVVNGREYEVDCLIYATGFEYQTKLSRRNGYEIHGRNGQPLSDKWKDGLSTLWGYHIRDFPNCFILGNGQSAVTPNFTHMLNEAGKHVAYVVKHCLDERVDVFEPTAEAEQAWVDHVMSFAGIKQQYDRECTPSYYNNEGQVNDVALTRTTSTRAVRSLINILREWREKGDFAQFQQRKR
modifications: Primer

Columns and labels:
[1] = tested on: cyclododecanone monooxygenase (CDMO); assay: Substrate specificity of cloned CDMO (relative activity towards cyclic ketones); format: biochemical, Pseudomonas putida strain HI-70; conditions: ketone as substrate, cyclododecanone = 100%
[2] = tested on: cyclododecanone monooxygenase (CDMO); assay: Comparison of CDMO activity in E. coli and native HI-70; format: biochemical, Pseudomonas putida strain HI-70

Molecule | relative activity [1] [%] | CDMO activity ([2]; from E. coli DH5α(pSD-cdnB)) | CDMO activity ([2]; original P. putida strain HI-70)
O=C1CCCCCCCCC1 [cyclodecanone] | 10 | – | –
O=C1CCCCCCCCCCC1 [cyclododecanone] | 100 | – | –
O=C1CCCCCCCCCCCCCC1 [cyclopentadecanone] | 144 | – | –
O=C1CCCCCCCCCCCC1 [cyclotridecanone] | 138 | – | –
O=C1CCCCCCCCCC1 [cycloundecanone] | 56 | – | –
B1 | – | 0.48 U/mg of protein | 0.14 U/mg of protein
